The results in this text go back to ChEMBL document CHEMBL5291721, “A preclinical secondary pharmacology resource illuminates target-adverse drug reaction associations of marketed drugs” (Nat Commun, 2023).

SMILES strings stand for the structures. *1 amine or outer side, *2 acyl side, *3 side chain or, on linkers, in order; H or OH if unused. Where a SMILES comes first, the peptide text is derived from it. Bridges are numbered along the chain shown (N, C = ends). [ ]: non-standard residue; d: D form. The star is where a group is joined. hTyr(3S-OH,4S-OH,3'-OSO3H) = N[C@H](C(=O)O)[C@H](O)[C@@H](O)c1ccc(O)c(OS(=O)(=O)O)c1; Orn(4R-OH,5R-OH) = O=C([C@H](C[C@@H](O)[C@@H](O)N[*:3])N[*:1])[*:2]; Pro(3S-OH,4S-Me) = C[C@H]1CN[C@H](C(=O)O)[C@H]1O; X1 = CCCCCOc1ccc(-c2cc(-c3ccc(C(=O)*)cc3)no2)cc1; Gln(3R-OH) = NC(=O)C[C@@H](O)[C@H](N)C(=O)O; Hyp = O=C(O)[C@@H]1C[C@@H](O)CN1

Assay [1] concerns the target Acetylcholinesterase (Homo sapiens, UniProt P22303). Format: functional.
Assay [2] concerns the target Histamine H3 receptor (Homo sapiens, UniProt Q9Y5N1).
In assay [3] the target is Mu-type opioid receptor (Homo sapiens, UniProt P35372).
Assay [4] has as its target Prostaglandin G/H synthase 1 (Homo sapiens, UniProt P23219). It counts as functional.
The target in assay [5] is T1, Muscarinic acetylcholine receptor M1 (Homo sapiens, UniProt P11229).
T1 sequence (P11229 whole entry): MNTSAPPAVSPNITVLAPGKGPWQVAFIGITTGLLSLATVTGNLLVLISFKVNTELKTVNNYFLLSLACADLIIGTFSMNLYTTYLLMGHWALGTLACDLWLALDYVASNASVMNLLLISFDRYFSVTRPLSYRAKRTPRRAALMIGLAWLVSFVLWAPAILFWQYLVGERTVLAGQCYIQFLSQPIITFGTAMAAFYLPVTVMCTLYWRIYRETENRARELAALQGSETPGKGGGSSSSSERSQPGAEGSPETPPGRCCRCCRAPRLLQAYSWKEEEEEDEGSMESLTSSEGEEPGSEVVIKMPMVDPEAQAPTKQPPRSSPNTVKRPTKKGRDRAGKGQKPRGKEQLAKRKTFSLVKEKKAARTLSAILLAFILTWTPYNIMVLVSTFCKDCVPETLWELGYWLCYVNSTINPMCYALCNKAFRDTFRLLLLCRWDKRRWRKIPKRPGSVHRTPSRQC
It counts as functional, cell-based.

Assay [6] deals with Voltage-gated inwardly rectifying potassium channel KCNH2 (Homo sapiens, UniProt Q12809). It counts as functional. The note with it: read-out: AC50.
Assay [7] concerns the target Voltage-dependent L-type calcium channel subunit alpha-1C (Rattus norvegicus, UniProt P22002). It counts as functional.
Assay [8] concerns the target 3',5'-cyclic-AMP phosphodiesterase 4D (Homo sapiens, UniProt Q08499). It counts as functional.
The target of assay [9] is T2, Progesterone receptor (Homo sapiens, UniProt P06401).
T2 sequence (P06401 whole entry): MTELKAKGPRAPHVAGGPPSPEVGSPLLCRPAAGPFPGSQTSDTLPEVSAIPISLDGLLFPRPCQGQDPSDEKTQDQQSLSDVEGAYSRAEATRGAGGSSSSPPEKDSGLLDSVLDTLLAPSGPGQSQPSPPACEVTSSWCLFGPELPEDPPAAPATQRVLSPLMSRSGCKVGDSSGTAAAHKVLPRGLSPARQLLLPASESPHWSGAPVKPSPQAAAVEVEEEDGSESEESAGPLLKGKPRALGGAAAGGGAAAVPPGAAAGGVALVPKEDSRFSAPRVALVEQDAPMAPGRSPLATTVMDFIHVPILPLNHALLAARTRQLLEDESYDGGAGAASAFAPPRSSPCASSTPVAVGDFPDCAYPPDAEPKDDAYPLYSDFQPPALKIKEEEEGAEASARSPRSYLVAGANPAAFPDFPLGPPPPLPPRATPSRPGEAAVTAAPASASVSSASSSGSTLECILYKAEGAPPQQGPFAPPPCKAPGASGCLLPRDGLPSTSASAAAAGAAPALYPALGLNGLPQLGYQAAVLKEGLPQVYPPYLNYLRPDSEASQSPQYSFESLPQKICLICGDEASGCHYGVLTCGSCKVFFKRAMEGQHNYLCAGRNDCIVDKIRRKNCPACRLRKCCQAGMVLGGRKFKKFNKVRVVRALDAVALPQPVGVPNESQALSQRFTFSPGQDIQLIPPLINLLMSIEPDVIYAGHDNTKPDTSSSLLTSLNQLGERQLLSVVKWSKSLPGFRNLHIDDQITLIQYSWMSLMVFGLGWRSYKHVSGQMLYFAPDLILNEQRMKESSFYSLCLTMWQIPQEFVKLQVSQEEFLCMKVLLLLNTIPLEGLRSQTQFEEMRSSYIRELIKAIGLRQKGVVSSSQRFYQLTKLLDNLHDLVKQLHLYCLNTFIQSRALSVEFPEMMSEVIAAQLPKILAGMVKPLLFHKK
Format: functional.

For assay [10], the target named is Gamma-aminobutyric acid receptor subunit alpha-1 (Rattus norvegicus, UniProt P62813).
For assay [11], the target named is T3, 5-hydroxytryptamine receptor 1A (Homo sapiens, UniProt P08908).
T3 sequence (P08908 whole entry): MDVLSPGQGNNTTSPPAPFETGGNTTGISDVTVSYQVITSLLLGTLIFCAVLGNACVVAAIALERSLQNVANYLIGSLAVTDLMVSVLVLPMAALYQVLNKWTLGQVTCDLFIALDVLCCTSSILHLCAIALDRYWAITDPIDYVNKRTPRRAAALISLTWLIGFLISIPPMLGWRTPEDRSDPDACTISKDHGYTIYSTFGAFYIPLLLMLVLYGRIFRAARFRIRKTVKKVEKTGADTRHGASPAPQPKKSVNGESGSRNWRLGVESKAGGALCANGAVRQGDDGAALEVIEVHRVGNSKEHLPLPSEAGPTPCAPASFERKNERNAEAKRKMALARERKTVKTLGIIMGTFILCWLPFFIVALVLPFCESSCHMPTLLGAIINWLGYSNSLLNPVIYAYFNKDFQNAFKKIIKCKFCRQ
Format: functional, cell-based.
Further: assay procedure not described here.

Sequence of Acetylcholinesterase (P22303 whole entry): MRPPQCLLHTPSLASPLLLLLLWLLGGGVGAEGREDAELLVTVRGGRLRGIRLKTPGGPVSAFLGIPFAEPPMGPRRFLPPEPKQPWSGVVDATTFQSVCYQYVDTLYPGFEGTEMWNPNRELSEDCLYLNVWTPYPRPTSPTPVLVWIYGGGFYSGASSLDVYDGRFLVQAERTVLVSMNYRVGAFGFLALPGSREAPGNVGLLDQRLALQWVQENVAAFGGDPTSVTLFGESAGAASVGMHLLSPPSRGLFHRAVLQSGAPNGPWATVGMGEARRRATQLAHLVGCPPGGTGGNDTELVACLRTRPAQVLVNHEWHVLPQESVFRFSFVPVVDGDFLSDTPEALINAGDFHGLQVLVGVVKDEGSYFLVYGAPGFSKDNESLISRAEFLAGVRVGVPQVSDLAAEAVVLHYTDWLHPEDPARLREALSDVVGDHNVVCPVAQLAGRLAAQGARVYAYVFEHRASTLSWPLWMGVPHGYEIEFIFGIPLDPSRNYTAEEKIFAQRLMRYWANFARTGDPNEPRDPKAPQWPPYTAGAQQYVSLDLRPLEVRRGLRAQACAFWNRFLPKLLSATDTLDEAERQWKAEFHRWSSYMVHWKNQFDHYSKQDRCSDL
Sequence of Histamine H3 receptor (Q9Y5N1 whole entry): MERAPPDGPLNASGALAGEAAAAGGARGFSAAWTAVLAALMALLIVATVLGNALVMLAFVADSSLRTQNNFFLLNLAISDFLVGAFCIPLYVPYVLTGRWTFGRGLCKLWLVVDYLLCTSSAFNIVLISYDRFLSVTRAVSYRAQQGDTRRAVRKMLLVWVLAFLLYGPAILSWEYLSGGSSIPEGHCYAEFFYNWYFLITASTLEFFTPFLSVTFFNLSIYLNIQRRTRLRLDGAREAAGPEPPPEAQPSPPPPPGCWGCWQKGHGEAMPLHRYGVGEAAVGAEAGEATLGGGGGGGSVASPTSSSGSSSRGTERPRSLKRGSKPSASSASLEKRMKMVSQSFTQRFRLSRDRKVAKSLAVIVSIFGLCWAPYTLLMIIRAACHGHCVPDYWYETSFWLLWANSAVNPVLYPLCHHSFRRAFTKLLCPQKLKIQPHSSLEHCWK
Sequence of Mu-type opioid receptor (P35372 whole entry): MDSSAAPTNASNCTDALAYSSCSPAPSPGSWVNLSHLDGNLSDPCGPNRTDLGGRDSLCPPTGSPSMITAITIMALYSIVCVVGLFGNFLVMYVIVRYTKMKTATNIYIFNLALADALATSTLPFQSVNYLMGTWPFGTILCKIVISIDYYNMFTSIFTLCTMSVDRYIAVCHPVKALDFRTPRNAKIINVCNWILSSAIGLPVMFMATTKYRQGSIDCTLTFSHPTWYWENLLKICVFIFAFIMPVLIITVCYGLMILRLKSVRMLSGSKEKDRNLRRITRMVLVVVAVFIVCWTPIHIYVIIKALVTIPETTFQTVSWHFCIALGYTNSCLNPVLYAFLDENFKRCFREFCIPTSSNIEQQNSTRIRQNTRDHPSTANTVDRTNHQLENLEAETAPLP
Sequence of Voltage-gated inwardly rectifying potassium channel KCNH2 (Q12809 whole entry): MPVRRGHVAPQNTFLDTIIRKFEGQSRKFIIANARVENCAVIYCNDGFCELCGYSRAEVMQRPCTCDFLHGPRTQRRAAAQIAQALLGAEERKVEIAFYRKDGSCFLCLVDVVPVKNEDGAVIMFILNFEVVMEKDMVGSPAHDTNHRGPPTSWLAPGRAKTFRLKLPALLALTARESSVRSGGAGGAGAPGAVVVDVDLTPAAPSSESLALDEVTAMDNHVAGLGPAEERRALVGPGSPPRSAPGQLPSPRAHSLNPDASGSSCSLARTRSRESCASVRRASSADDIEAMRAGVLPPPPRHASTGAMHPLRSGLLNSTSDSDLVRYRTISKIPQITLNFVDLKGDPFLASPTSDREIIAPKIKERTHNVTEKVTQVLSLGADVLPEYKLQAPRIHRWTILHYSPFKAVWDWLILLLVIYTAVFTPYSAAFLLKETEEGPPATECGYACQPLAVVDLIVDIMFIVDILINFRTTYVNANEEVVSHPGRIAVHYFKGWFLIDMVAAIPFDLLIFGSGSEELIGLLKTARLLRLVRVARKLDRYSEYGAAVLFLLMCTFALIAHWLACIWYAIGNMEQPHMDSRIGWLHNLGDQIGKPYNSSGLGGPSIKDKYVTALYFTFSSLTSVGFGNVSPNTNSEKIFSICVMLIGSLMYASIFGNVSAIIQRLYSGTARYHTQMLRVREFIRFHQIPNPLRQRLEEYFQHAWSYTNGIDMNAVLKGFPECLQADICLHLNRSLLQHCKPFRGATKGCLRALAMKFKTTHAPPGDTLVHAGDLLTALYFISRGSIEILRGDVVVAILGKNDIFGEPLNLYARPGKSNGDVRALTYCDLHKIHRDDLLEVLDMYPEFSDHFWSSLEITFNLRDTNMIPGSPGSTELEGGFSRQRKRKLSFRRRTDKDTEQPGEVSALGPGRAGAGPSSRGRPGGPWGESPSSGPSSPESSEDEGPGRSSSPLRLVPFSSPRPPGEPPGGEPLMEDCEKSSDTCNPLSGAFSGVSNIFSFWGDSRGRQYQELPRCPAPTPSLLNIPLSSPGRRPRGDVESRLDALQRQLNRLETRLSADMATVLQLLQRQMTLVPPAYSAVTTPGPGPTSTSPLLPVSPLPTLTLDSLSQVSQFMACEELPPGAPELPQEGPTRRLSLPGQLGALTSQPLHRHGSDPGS
Sequence of Gamma-aminobutyric acid receptor subunit alpha-1 (P62813 whole entry): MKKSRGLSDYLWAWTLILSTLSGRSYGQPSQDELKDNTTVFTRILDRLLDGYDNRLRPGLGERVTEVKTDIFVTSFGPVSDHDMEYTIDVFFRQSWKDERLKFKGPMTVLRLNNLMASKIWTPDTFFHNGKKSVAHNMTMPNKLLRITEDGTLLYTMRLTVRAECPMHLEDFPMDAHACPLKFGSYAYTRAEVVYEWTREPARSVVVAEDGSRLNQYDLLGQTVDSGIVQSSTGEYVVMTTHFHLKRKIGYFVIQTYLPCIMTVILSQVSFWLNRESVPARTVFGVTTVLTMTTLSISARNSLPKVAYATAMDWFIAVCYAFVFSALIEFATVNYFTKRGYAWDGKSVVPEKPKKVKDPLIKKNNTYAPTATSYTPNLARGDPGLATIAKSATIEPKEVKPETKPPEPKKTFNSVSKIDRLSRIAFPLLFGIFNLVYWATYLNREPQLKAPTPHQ
Sequence of Prostaglandin G/H synthase 1 (P23219 whole entry): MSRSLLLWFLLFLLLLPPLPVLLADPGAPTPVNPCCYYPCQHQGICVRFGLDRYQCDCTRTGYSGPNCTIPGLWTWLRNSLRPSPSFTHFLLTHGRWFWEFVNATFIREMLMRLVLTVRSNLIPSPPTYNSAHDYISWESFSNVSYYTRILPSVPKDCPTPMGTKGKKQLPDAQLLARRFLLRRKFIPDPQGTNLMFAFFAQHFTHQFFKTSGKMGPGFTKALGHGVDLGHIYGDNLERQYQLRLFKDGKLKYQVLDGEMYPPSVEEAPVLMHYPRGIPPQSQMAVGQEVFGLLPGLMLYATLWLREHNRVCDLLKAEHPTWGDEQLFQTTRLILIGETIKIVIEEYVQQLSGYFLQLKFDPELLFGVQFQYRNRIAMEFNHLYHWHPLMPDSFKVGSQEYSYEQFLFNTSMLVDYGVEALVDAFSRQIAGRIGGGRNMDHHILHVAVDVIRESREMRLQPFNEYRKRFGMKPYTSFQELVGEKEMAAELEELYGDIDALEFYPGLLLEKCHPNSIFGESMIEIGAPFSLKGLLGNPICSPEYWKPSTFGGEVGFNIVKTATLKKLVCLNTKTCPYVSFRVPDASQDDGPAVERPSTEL
Sequence of 3',5'-cyclic-AMP phosphodiesterase 4D (Q08499 whole entry): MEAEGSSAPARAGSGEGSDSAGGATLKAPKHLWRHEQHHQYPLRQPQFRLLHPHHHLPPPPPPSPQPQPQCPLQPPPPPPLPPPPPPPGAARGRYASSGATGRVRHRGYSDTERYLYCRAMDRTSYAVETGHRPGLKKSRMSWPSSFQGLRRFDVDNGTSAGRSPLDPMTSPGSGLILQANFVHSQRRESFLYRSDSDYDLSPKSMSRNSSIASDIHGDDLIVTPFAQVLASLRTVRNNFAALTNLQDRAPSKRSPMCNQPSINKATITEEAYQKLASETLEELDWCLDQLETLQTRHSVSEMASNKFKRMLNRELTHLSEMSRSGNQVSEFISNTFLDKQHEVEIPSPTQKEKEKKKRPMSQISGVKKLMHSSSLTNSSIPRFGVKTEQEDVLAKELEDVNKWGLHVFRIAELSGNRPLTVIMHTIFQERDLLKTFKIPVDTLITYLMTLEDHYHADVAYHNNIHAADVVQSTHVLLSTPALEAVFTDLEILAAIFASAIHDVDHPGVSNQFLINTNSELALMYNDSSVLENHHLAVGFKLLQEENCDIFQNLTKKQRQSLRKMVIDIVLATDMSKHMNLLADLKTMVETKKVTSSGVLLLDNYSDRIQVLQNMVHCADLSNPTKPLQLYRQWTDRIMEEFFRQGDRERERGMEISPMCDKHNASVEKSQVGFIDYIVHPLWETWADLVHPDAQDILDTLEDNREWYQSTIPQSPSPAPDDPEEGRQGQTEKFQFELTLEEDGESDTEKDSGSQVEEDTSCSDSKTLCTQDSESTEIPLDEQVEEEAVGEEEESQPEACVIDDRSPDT

The term AC50 denotes the concentration at which the activity in the assay is half-maximal. For `CN1CCC[C@@H]1Cc1c[nH]c2ccc(CCS(=O)(=O)c3ccccc3)cc12`, the AC50 in [1] was > 30 µM; in assay [2], 5.7 µM; in assay [3], 8 µM; in assay [4] it was > 30 µM.
Regarding `COc1nccnc1NS(=O)(=O)c1ccc(N)cc1`, the AC50 in [1], in assay [5], in assay [2], in assay [6], in [3] and in [4] was > 30 µM each time.
For `O=C(Nc1cccc2c(=O)cc(-c3nnn[nH]3)oc12)c1ccc(OCCCCc2ccccc2)cc1`, the AC50 is > 30 µM in [1]; > 30 µM in assay [5]; > 30 µM in assay [2]; 4.64 µM in assay [3]; 26.7 µM in assay [4].
In the case of `NC(=O)c1nc(F)c[nH]c1=O`, the half-maximal activity concentration (AC50) in assay [1], in [5], in assay [2], in assay [6], in assay [3] and in assay [4] was > 30 µM throughout.
Consider `CN(C)CCCN1C(=O)c2cc([N+](=O)[O-])ccc2Oc2ccccc21`, for which the AC50 in assay [1] is > 30 µM; in assay [5], > 30 µM; in assay [2], > 30 µM; in assay [6], > 30 µM; in [3] it was > 30 µM; in [4], 29.6 µM.
With `O=S(=O)(O)CCS` [2-MERCAPTOETHANESULFONIC ACID], the AC50 was > 10 µM in assay [1]; > 30 µM in [2]; > 30 µM in [6]; > 30 µM in assay [3]; 0.486 µM in [4].
`CNCC[C@@H](Oc1ccccc1C)c1ccccc1` [ATOMOXETINE]: the AC50 in assay [7], in assay [8] and in [9] was > 30 µM throughout.
As for `O=C(O)CCCc1ccc(N(CCCl)CCCl)cc1` [CHLORAMBUCIL], the AC50 in [1], in [2], in assay [6], in [3] and in assay [4] was > 30 µM each time.
On to `N[C@@H](CSSC[C@H](N)C(=O)O)C(=O)O` [CYSTINE], for which the AC50 in assay [1], in assay [5], in assay [2], in assay [3] and in [4] was > 30 µM in each case.
With `Cn1c(=O)c2c(ncn2CC(O)CO)n(C)c1=O` (centres undefined) [DYPHYLLINE], the AC50 in [1], in [2], in assay [6], in assay [3] and in [4] was > 30 µM throughout.
On to `CC1(C)O[C@@H]2C[C@H]3[C@@H]4CCC5=CC(=O)CC[C@]5(C)[C@@]4(F)[C@@H](O)C[C@]3(C)[C@]2(C(=O)CCl)O1` [HALCINONIDE], for which the AC50 in assay [1], in assay [2], in assay [6], in [3] and in assay [4] was > 30 µM each time.
As for `CC(C)(N)C(=O)N[C@H](Cc1c[nH]c2ccccc12)C(=O)N[C@H](Cc1c[nH]c2ccccc12)NC=O` [MACIMORELIN], the AC50 is > 30 µM in [1]; > 30 µM in assay [5]; > 30 µM in assay [2]; 0.75 µM in assay [3]; > 30 µM in assay [4].
For `CCCCCOc1ccc(-c2cc(-c3ccc(C(=O)N[C@H]4C[C@@H](O)[C@@H](O)NC(=O)[C@@H]5[C@@H](O)[C@@H](C)CN5C(=O)[C@H]([C@H](O)CC(N)=O)NC(=O)[C@H]([C@H](O)[C@@H](O)c5ccc(O)c(OS(=O)(=O)O)c5)NC(=O)[C@@H]5C[C@@H](O)CN5C(=O)[C@H]([C@@H](C)O)NC4=O)cc3)no2)cc1` [MICAFUNGIN] (X1-[Orn(4R-OH,5R-OH)]T[Hyp][hTyr(3S-OH,4S-OH,3'-OSO3H)][Gln(3R-OH)][Pro(3S-OH,4S-Me)]; lactam 1-C), the AC50 in assay [1] is > 30 µM; in assay [5] it was > 30 µM; in assay [2], > 30 µM; in assay [3], 7.68 µM; in [4], > 30 µM.
Turning to `CCOc1cc(N)c(Cl)cc1C(=O)NCC1CN(Cc2ccc(F)cc2)CCO1` (centres undefined) [MOSAPRIDE], the AC50 in assay [1], in assay [2], in assay [6], in assay [3] and in [4] was > 30 µM throughout.
Take `CN1CCC[C@H]1c1cccnc1` [NICOTINE]: the AC50 in assay [1] was > 30 µM; in assay [2], > 30 µM; in assay [3], > 30 µM; in assay [4], 22 µM.
Take `C#C[C@]1(O)CC[C@H]2[C@@H]3CCC4=C(CCC(=O)C4)[C@H]3CC[C@@]21C` [NORETHYNODREL]: the half-maximal activity concentration (AC50) is […] in assay [1]; […] in assay [5]; […] in assay [2]; […] in [3]; 11.8 µM in assay [4].
As to `CNCCC=C1c2ccccc2CCc2ccccc21` [NORTRIPTYLINE], the AC50 in assay [7] is > 30 µM; in [10] it was > 30 µM; in [11], > 30 µM; in [6] it was 2.59 µM; in assay [8], 7.5 µM; in [9], > 30 µM.
Turning to `CCCCCCCCCCC[C@@H](C[C@@H]1OC(=O)[C@H]1CCCCCC)OC(=O)[C@H](CC(C)C)NC=O` [ORLISTAT], the AC50 in [5], in [2], in assay [6], in [3] and in [4] was > 30 µM each time.
With `COc1ccc(Cc2nccc3cc(OC)c(OC)cc23)cc1OC` [PAPAVERINE], the AC50 in assay [7] was > 30 µM; in assay [10] it was > 30 µM; in assay [11], > 30 µM; in assay [6], 5.6 µM; in assay [9] it was > 30 µM.
With `CC(C)COc1ccc(CNC(=O)N(Cc2ccc(F)cc2)C2CCN(C)CC2)cc1` [PIMAVANSERIN], the AC50 in [1] is > 30 µM; in assay [5], 29.9 µM; in [2], 28.7 µM; in assay [3], 16.7 µM; in assay [4] it was > 30 µM.
For the compound `CN(C)C(=O)c1nc(CNC(=O)CN)n(-c2ccc(Cl)cc2C(=O)c2ccccc2Cl)n1` [RILMAZAFONE], the AC50 in assay [1] is > 30 µM; in [5], > 30 µM; in assay [2] it was > 30 µM; in assay [3], > 30 µM; in [4] it was 13.5 µM.
Take `O=C(Nc1c(Cl)cncc1Cl)c1ccc(OC(F)F)c(OCC2CC2)c1` [ROFLUMILAST]: the AC50 in assay [10], in assay [11], in assay [6] and in assay [9] was > 30 µM each time.
Turning to `CCCCCCCCNC(C)C(O)c1ccc(SC(C)C)cc1` (centres undefined) [SULOCTIDIL], the AC50 is > 30 µM in assay [1]; 27.4 µM in assay [2]; 0.43 µM in [6]; 7.07 µM in assay [3]; > 30 µM in assay [4].
